{"source": "patent US9192579B2", "about": "“Sustained release drug delivery devices, methods of use, and methods of manufacturing thereof” (pSivida US, Inc., priority 2000, dated 2015)", "origin": "cited, not measured here", "test_system": "CMV retinitis", "settings": "intravitreal injections of 200 to 400 μg once or twice weekly, AIDS patients"}
{"compound": "Nc1nc(O)c2ncn(COC(CO)CO)c2n1", "note": "[GCV, ganciclovir]", "values": [{"measurement": "effect on CMV retinitis", "value": "temporary remission"}]}
